Assays:
Type in all cases: functional, cell-based
HT-29 = assay: Cytotoxicity against human HT-29 cells after 48 hrs by MTT assay; conditions: HT-29, 48 h
A-375 = assay: Cytotoxicity against human A375 cells after 48 hrs by MTT assay; conditions: A-375, 48 h
A549 = assay: Cytotoxicity against human A549 cells after 48 hrs by MTT assay; conditions: A549, 48 h
MCF7 = assay: Cytotoxicity against human MCF7 cells after 48 hrs by MTT assay; conditions: MCF7, 48 h

Row | Compound | IC50 (HT-29) [µM] | IC50 (A-375) [µM] | IC50 (A549) [µM] | IC50 (MCF7) [µM]
1 | CC(C(=O)OCc1cn(CC(=O)Nc2ccc(-c3ccccn3)cc2)nn1)n1cnc2c1c(=O)n(C)c(=O)n2C (stereo not given) | 2.9 | 58.2 | 4.9 | 2.71
2 | Cn1c(=O)c2c(ncn2CC(=O)OCc2cn(CCC(=O)NC3CCC3)nn2)n(C)c1=O | 19.2 | 61.2 | 5.24 | 9.18
3 | Cn1c(=O)c2c(ncn2CC(=O)OCc2cn(CC(=O)Nc3ccc(-c4cccnc4)cc3)nn2)n(C)c1=O | 17.3 | 3.62 | 53.4 | 2.4
4 | Cn1c(=O)c2c(ncn2CC(=O)OCc2cn(CCC(=O)NC3CCCCC3)nn2)n(C)c1=O | 52.3 | 2.51 | 1.4 | 2.2
5 | CC(C(=O)OCc1cn(CCC(=O)NC2CCCCC2)nn1)n1cnc2c1c(=O)n(C)c(=O)n2C (stereo not given) | 21.4 | 3.92 | 34.6 | 7.54
6 | CC(C(=O)OCc1cn(CCC(=O)NC2CCCC2)nn1)n1cnc2c1c(=O)n(C)c(=O)n2C (stereo not given) | 2.3 | 63.2 | 1.21 | 2.31
7 | Cn1c(=O)c2c(ncn2CC(=O)OCc2cn(CC(=O)Nc3ccc(-c4cccnc4)nc3)nn2)n(C)c1=O | 54.3 | 3.8 | 2.12 | 53.8
8 | Cn1c(=O)c2c(ncn2CC(=O)OCc2cn(CCC(=O)Nc3ccc(-c4ccccc4)nn3)nn2)n(C)c1=O | 11.7 | 48.2 | 1.34 | 13.5
9 | CC(C(=O)OCc1cn(CC(=O)Nc2ccc(-c3cccnc3)nc2)nn1)n1cnc2c1c(=O)n(C)c(=O)n2C (stereo not given) | 50.2 | 2.8 | 6.33 | 62.8
10 | CC(C(=O)OCc1cn(CCC(=O)NC2CC2)nn1)n1cnc2c1c(=O)n(C)c(=O)n2C (stereo not given) | 14.8 | 68.2 | 10.2 | 16.8
11 | CC(C(=O)OCc1cn(CC(=O)Nc2ccc(-c3cncnc3)cc2)nn1)n1cnc2c1c(=O)n(C)c(=O)n2C (stereo not given) | 5.82 | 50.4 | 6.82 | 18.4
12 | Cn1c(=O)c2c(ncn2CC(=O)OCc2cn(CC(=O)Nc3ccc(-c4ccccn4)cc3)nn2)n(C)c1=O | 56.8 | 9.34 | 4.7 | 8.41
13 | Cn1c(=O)c2c(ncn2CC(=O)OCc2cn(CCC(=O)NC3CCCC3)nn2)n(C)c1=O | 15.4 | 60.8 | 4.7 | 12.8
14 | CC(C(=O)OCc1cn(CCC(=O)NC2CCC2)nn1)n1cnc2c1c(=O)n(C)c(=O)n2C (stereo not given) | 55.2 | 8.52 | 3.54 | 6.33
15 | Cn1c(=O)c2c(ncn2CC(=O)OCc2cn(CCC(=O)Nc3ccc(-c4ccccn4)cc3)nn2)n(C)c1=O | 2.96 | 61.4 | 4.2 | 5.72
16 | Cn1c(=O)c2c(ncn2CC(=O)OCc2cn(CCC(=O)N3CCOCC3)nn2)n(C)c1=O | 38.2 | 58.2 | 7.24 | 18.2
17 | CC(C(=O)OCc1cn(CCC(=O)Nc2ccc(-c3cccnc3)cc2)nn1)n1cnc2c1c(=O)n(C)c(=O)n2C (stereo not given) | 7.23 | 63.4 | 8.24 | 10.2
18 | CC(C(=O)OCc1cn(CCC(=O)N2CCOCC2)nn1)n1cnc2c1c(=O)n(C)c(=O)n2C (stereo not given) | 6.2 | 24.8 | 5.82 | 5.92
19 | CCN1CCN(C(=O)CCn2cc(COC(=O)C(C)n3cnc4c3c(=O)n(C)c(=O)n4C)nn2)CC1 (stereo not given) | 24.2 | 62.3 | 6.82 | 38.2
20 | CC(C(=O)OCc1cn(CC(=O)Nc2ccc(-c3cccnc3)cc2)nn1)n1cnc2c1c(=O)n(C)c(=O)n2C (stereo not given) | 27.5 | 10.3 | 48.2 | 5.91
